According to US6780855B2, “11β-HALOGEN-7α-SUBSTITUTED ESTRATRIENES, PROCESS FOR THE PRODUCTION OF PHARMACEUTICAL PREPARATIONS THAT CONTAIN THESE 11β-HALOGEN-7α-SUBSTITUTED ESTRATRIENES AS WELL AS THEIR USE FOR THE PRODUCTION OF PHARMACEUTICAL AGENTS” (Schering Aktiengesellschaft, priority 1997, dated 2004):

Tests used:
[1] = tested on: human estrogen receptor; assay: Partial estrogenic action: transactivation assay, HeLa cells with HEGO and reporter gene rPR-TK-CAT; type: cell-based; details: concentration of 1 μm, negative value means suppression of reporter gene activity below controls
Protocol: The partial estrogenic action of compounds according to the invention was determined by transactivation assays. HeLa cells were transfixed with human estrogen receptor expression vector (HEGO) and a reporter gene rPR-TK-CAT. This reporter gene contains the “Estrogen Responsive Element” of the rabbit progesterone receptor gene (+698/+729 region) before a TK-CAT gene (Savouret, J. F.; Bailly, A.; Misrahi, M.; Rauch, C.; Redeuilh, G.; Chauchereau, A.; Milgrom, E., Characterization of the Hormone Responsive Element Involved in the Regulation of the Progesterone Receptor Gene. EMBO J. 10, 1875-1883 (1991).
The estrogenic action was determined at a concentration of 1 μm.

[2] = tested on: MVLN cells; assay: Transactivation assay for antiestrogenic action in MVLN cells (reporter gene Vit-TK-LUC); type: cell-based; details: Homo sapiens; MVLN cell line, in the presence of 0.1 nM of estradiol
Protocol: (§1) The antiestrogenic action of the compounds according to the invention was determined in transactivation assays [Demirpence, E.; Duchesne, M.-J.; Badia, E.; Gagne, D. and Pons, M.: MVLN Cells: a Bioluminescent MCF-7-Derived cell Line to Study the Modulation of Estrogenic Activity; J. Steroid. Molec. Biol. Vol. 46, No. 3, 355-364 (1993) and Berry, M.; Metzger, D.; Chambon, P.: Role of the Two Activating Domains of the Estrogen Receptor in the Cell-type and Promoter-context Dependent Agonistic Activity of the Anti-estrogen 4-Hydroxytamoxifen; The EMBO Journal Vol. 9, 2811-2818 (1990)].
The MVLN cells are transfixed in a stable manner with reporter gene Vit-TK-LUC. The antiestrogenic active strength was determined in the presence of 0.1 nM of estradiol.
(§2) The IC50 values for the new compounds are in the nanomolar range. In the MVLN cell line, the following IC50 values are produced for the compound of Examples 3 and 8 (execution of test according to the above-indicated bibliographic references): […]

[3] = tested on: uterus; assay: Uterus growth test in infantile rats (antiestrogenic action), p.o.; type: in vivo; details: 0.3 mg p.o. once daily over 3 days with 0.5 μg estradiol benzoate s.c., inhibition compared to EB-control
Protocol: The uterus growth test in infantile rats, p.o. (test on antiestrogenic action in vivo) also confirms the antiestrogenic action of the compounds according to the invention. The test was performed as described below:
Uterus Growth Test in Infantile Rats (Antiestrogenic Action)
In rodents, the uterus reacts to the application of estrogens with an increase in weight (both proliferation and water retention). This growth can be inhibited in a dose-dependent manner by simultaneous administration of compounds that have an antiestrogenic action.
Infantile female rats weighing 35-45 g at the beginning of the test, 5-6 animals per dose.
Formulation and Administration of the Substances: […]
For the p.o. administration, the substances are dissolved in 1 part ethanol (E) and made up with 9 parts peanut oil (EÖ).
The young rats just dropped by the mothers are delivered for acclimation one day before the beginning of treatment and immediately supplied with food—right in the cage. […] The moist weight (less contents) is determined from the prepared uteri. […]
The average values are determined with standard deviation (X+SD) and the significance of the differences in the control group (EB) in the Dunnett Test (p<0.05) for each group from the relative organ weights (mg/100 g of body weight). […] The relative actions of the test substances are determined by co-variance analysis and regression analysis.

[4] = tested on: HeLa; assay: Transactivation assay for antiestrogenic action in HeLa cells; type: cell-based; details: Homo sapiens
Protocol: as §1, §2

Structure (SMILES)	Activation of the rPR-TK Promoter [% estradiol] [1]	melting point	IC50 [2]	Antiuterotrophic action at 0.3 mg [% inhibition] [3]	IC50 [4]
CN(CC=C(F)C(F)(F)C(F)(F)C(F)(F)F)CCCCC[C@@H]1Cc2cc(O)ccc2[C@@H]2[C@@H]1[C@@H]1CC[C@H](O)[C@@]1(C)C[C@@H]2F [Example 18, 11β-Fluoro-7α-{5-[methyl-(3,4,4,5,5,6,6,6-octafluoro-hex-2-enyl)-amino]-pentyl}-estra-1,3,5(10)-triene-3,17β-diol]	29 % estradiol				
CN(CCCCCCCC(F)(F)C(F)(F)F)CCCCC[C@@H]1Cc2cc(O)ccc2[C@@H]2[C@@H]1[C@@H]1CC[C@H](O)[C@@]1(C)C[C@@H]2F		110 °C			
CN(CCCCCCC(F)(F)C(F)(F)F)CCCCC[C@@H]1Cc2cc(O)ccc2[C@@H]2[C@@H]1[C@@H]1CC[C@H](O)[C@@]1(C)C[C@@H]2F [Example 12, 11β-Fluoro-7α-{5-[methyl-(7,7,8,8,8-pentafluor-octyl)-amino]-pentyl}-estra-1,3,5(10)-triene-3,17β-diol]	34 % estradiol				
CN(CCCCC[C@@H]1Cc2cc(O)ccc2[C@@H]2[C@@H]1[C@@H]1CC[C@H](O)[C@@]1(C)C[C@@H]2F)CCCOCc1ccccc1 [Example 22, 7α-{5-[(3-Benzyloxy-propyl)-methyl-amino]-pentyl}-11β-fluor-estra-1,3,5(10)-triene-3,17β-diol]	53 % estradiol				
CN(CCCCC[C@@H]1Cc2cc(O)ccc2[C@@H]2[C@@H]1[C@@H]1CC[C@H](O)[C@@]1(C)C[C@@H]2F)CCCC(F)(F)C(F)(F)F [Example 8, 11β-Fluoro-7α-{5-[methyl-(4,4,5,5,5-pentafluoro-pentyl)-amino]-pentyl}-estra-1,3,5(10)-triene-3,17β-diol]	48 % estradiol		37 nM	0 % inhibition	8 nM
CN(CCCCCCCCC(F)(F)C(F)(F)F)CCCCC[C@@H]1Cc2cc(O)ccc2[C@@H]2[C@@H]1[C@@H]1CC[C@H](O)[C@@]1(C)C[C@@H]2F [Example 3, 11β-Fluoro-7α-{5-[methyl-(9,9,10,10,10-pentafluoro-decyl)-amino]-pentyl}-estra-1,3,5(10)-triene-3,17β-diol]	−25 % estradiol		6.3 nM	68 % inhibition	0.2 nM
